Laboratory results as given in patent US20230277632A1, “MODIFIED PlySs2 LYSINS AND ANTIBIOTIC COMBINATIONS FOR USE AGAINST GRAM-POSITIVE BACTERIA” (ContraFect Corporation, priority 2020, published 2023).
Read-outs that look alike come from different tables or passages of the source.

System: MSSA strains
Assay: Checkerboard assay: pp296 or CF-301 with oxacillin
Format: cell-based, Staphylococcus aureus
Settings: for MIC: Staphylococcus aureus, read-out: Single agent MICs; for FIC / MIC in combination: pp296 + oxacillin; for MIC in combination: unit assumed; for ΣFICmin: with oxacillin
From the text: In some embodiments, the present modified lysin polypeptides reduce the minimum inhibitory concentration (MIC) of an antibiotic. Any known method to assess MIC may be used. In some embodiments, a checkerboard assay is used to determine the effect of a lysin on antibiotic concentration. The checkerboard assay is based on a modification of the CLSI method for MIC determination by broth microdilution (See Clinical and Laboratory Standards Institute (CLSI), CLSI. 2015. Methods for Dilution Antimicrobial Susceptibility Tests for Bacteria That Grow Aerobically; Approved Standard-10th Edition. Clinical and Laboratory Standards Institute, Wayne, Pa., which is herein incorporated by reference in its entirety and Ceri et al. 1999. J. Clin. Microbiol. 37: 1771-1776, which is also herein incorporated by reference in its entirety).
Checkerboards are constructed by first preparing columns of e.g., a 96-well polypropylene microtiter plate, wherein each well has the same amount of antibiotic diluted 2-fold along the horizontal axis. […] The lysin and antibiotic dilutions are then combined, so that each column has a constant amount of antibiotic and doubling dilutions of lysin, while each row has a constant amount of lysin and doubling dilutions of antibiotic. Each well thus has a unique combination of lysin and antibiotic. Bacteria are added to the drug combinations at a given concentration. […] Summation fractional inhibitory concentrations (ΣFICs) are calculated for each drug and the minimum ΣFIC value (ΣFICmin) is used to determine the effect of the lysin/antibiotic combination.
The ability of CF-301 or a modified lysin polypeptide pp296 to synergize with oxacillin was assessed using a checkerboard analysis. For the checkerboard assay, a total of 50 μl of Mueller-Hinton broth is distributed into each well of microdilution plates. Then, a first antibiotic of a combination is serially diluted along the ordinate, while a second drug is diluted along the abscissa. An inoculum equal to a 0.5 McFarland turbidity standard is prepared from each bacterial isolate in Mueller-Hinton broth. Each microtiter well is then inoculated with 100 μl of a bacterial inoculum of 5×10^5 CFU/ml, and the plates are incubated at 37° C. for 18 h under aerobic conditions. The resulting checkerboard contains each combination of two antibiotics, with wells that contain the highest concentration of each antibiotic at opposite corners. […] To quantify the interactions between the antibiotics being tested, the FIC index (the combination of antibiotics that produced the greatest change from the individual antibiotic's MIC) value is calculated for each strain and antibiotic combination as follows:
(A/MICA)+(B/MICB)=FICA+FICB=FIC index,
where A and B are the MIC of each agent in combination in a single well, and MICA and MICB are the MIC of each drug when used individually. The combination is considered strongly synergistic when the FIC index is ≤0.5 and synergistic when the FIC index is >0.5-<1.

For `Cc1onc(-c2ccccc2)c1C(=O)N[C@@H]1C(=O)N2[C@@H]1SC(C)(C)[C@@H]2C(=O)O` [Oxacillin, oxacillin], which MIC (ATCC 29213 / MSSA, MSSA ATCC 29213) is on record?
The MIC was 0.5 µg/mL.

What about the MIC (MSSA, MSSA JMI-6625) of the same molecule?
The MIC was 1 µg/mL.

What about the MIC (MSSA, MSSA JMI-6885) of the same molecule?
Its MIC is 1 µg/mL.

What about the MIC (MSSA, MSSA JMI-6886) of the same molecule?
Its MIC is 1 µg/mL.

And the MIC (MSSA, MSSA JMI-7054)?
The MIC was 1 µg/mL.

And the MIC (MSSA, MSSA JMI-7160)?
Its MIC is 1 µg/mL.

And the MIC (MSSA, MSSA JMI-38739)?
Its MIC is 0.5 µg/mL.

What about the MIC (MSSA, MSSA JMI-38986) of the same molecule?
The MIC was 0.5 µg/mL.

What about the MIC (MSSA, MSSA JMI-40671) of the same molecule?
The MIC was 0.5 µg/mL.

What about the MIC (MSSA, MSSA JMI-46142) of the same molecule?
The MIC was 0.5 µg/mL.

And the FIC (MSSA ATCC 29213)?
Its FIC is 0.25.

And the MIC in combination (MSSA ATCC 29213)?
The MIC in combination was 0.125 µg/mL.

What about the FIC (MSSA JMI-6625) of the same molecule?
The FIC was 0.25.

What about the MIC in combination (MSSA JMI-6625) of the same molecule?
Its MIC in combination is 0.25 µg/mL.

And the FIC (MSSA JMI-6885)?
The FIC was 0.125.

What about the MIC in combination (MSSA JMI-6885) of the same molecule?
Its MIC in combination is 0.125 µg/mL.

What about the FIC (MSSA JMI-6886) of the same molecule?
The FIC was 0.25.

What about the MIC in combination (MSSA JMI-6886) of the same molecule?
Its MIC in combination is 0.25 µg/mL.

And the FIC (MSSA JMI-7054)?
The FIC was 0.25.

What about the MIC in combination (MSSA JMI-7054) of the same molecule?
The MIC in combination was 0.25 µg/mL.

And the FIC (MSSA JMI-7160)?
The FIC was 0.25.

What about the MIC in combination (MSSA JMI-7160) of the same molecule?
Its MIC in combination is 0.25 µg/mL.

What about the FIC (MSSA JMI-38739) of the same molecule?
Its FIC is 0.25.

And the MIC in combination (MSSA JMI-38739)?
The MIC in combination was 0.125 µg/mL.

And the FIC (MSSA JMI-38986)?
Its FIC is 0.25.

And the MIC in combination (MSSA JMI-38986)?
The MIC in combination was 0.125 µg/mL.

And the FIC (MSSA JMI-40671)?
Its FIC is 0.125.

What about the MIC in combination (MSSA JMI-40671) of the same molecule?
The MIC in combination was 0.0625 µg/mL.

And the FIC (MSSA JMI-46142)?
The FIC was 0.25.

What about the MIC in combination (MSSA JMI-46142) of the same molecule?
The MIC in combination was 0.125 µg/mL.

B1: CF-301: Lysin CF-301, comparator lysin in the oxacillin checkerboard analysis (protein)
chain: MTTVNEALNNVRAQVGSGVSVGNGECYALASWYERMISPDATVGLGAGVGWVSGAIGDTISAKNIGSSYNWQANGWTVSTSGPFKAGQIVTLGATPGNPYGHVVIVEAVDGDRLTILEQNYGGKRYPVRNYYSAASYRQQVVHYITPPGTVAQSAPNLAGSRSYRETGTMTVTVDALNVRRAPNTSGEIVAVYKRGESFDYDTVIIDVNGYVWVSYIGGSGKRNYVATGATKDGKRFGNAWGTFK
What does the source list for B1?
ΣFICmin (MSSA ATCC 29213): 0.5; ΣFICmin (MSSA JMI-6625): 0.375; ΣFICmin (MSSA JMI-6885): 0.5; ΣFICmin (MSSA JMI-6886): 0.5; ΣFICmin (MSSA JMI-7054): 0.5; ΣFICmin (MSSA JMI-7160): 0.5; ΣFICmin (MSSA JMI-38739): 0.5; ΣFICmin (MSSA JMI-38986): 0.375; ΣFICmin (MSSA JMI-40671): 0.3125; ΣFICmin (MSSA JMI-46142): 0.375
